Legend:
[1] = system: Rat; test: concentration in plasma after dosing; details: dosed: 2-Hydroxy-4-methoxybenzophenone, 100 mg/kg, oral, Male, F344
[2] = system: Rat; test: concentration in plasma after dosing; details: dosed: 2-Hydroxy-4-methoxybenzophenone, 8 mg/kg, iv, Female, F344
[3] = system: Rat; test: concentration in plasma after dosing; details: dosed: 2-Hydroxy-4-methoxybenzophenone, 500 mg/kg, oral, Female, F344
[4] = system: Mouse; test: concentration in plasma after dosing; details: 0.25 h; dosed: 2-Hydroxy-4-methoxybenzophenone; 50 mg/kg; iv; Female; B6C3F1
[5] = system: Mouse; test: concentration in plasma after dosing; details: 2 h; dosed: 2-Hydroxy-4-methoxybenzophenone; 500 mg/kg; oral; Female; B6C3F1
[6] = system: Mouse; test: concentration in plasma after dosing; details: 10 min; dosed: 2-Hydroxy-4-methoxybenzophenone; 250 mg/kg; oral; Female; B6C3F1
[7] = system: Rat; test: concentration in plasma after dosing; details: dosed: 2-Hydroxy-4-methoxybenzophenone, 500 mg/kg, oral, Female, F344; remark: listed apart in the source
[8] = system: Rat; test: concentration in plasma after dosing; details: dosed: 2-Hydroxy-4-methoxybenzophenone, 8 mg/kg, iv, Female, F344; remark: listed apart in the source
[9] = system: Mouse; test: concentration in plasma after dosing; details: 10 min; dosed: 2-Hydroxy-4-methoxybenzophenone; 500 mg/kg; oral; Male; B6C3F1
[10] = system: Rat; test: concentration in plasma after dosing; details: 0.25 h; dosed: 2-Hydroxy-4-methoxybenzophenone; 500 mg/kg; oral; Male; F344
[11] = system: Mouse; test: concentration in plasma after dosing; details: 0.25 h; dosed: 2-Hydroxy-4-methoxybenzophenone; 500 mg/kg; oral; Female; B6C3F1
[12] = system: Rat; test: concentration in plasma after dosing; details: dosed: 2-Hydroxy-4-methoxybenzophenone, 100 mg/kg, oral, Female, F344
[13] = system: Rat; test: concentration in plasma after dosing; details: dosed: Nitrite, 20 mg/kg, iv, Male, F344
[14] = system: Rat; test: concentration in plasma after dosing; details: 20 min; dosed: Nitrite; 20 mg/kg; iv; Male; F344
[15] = system: Rat; test: concentration in plasma after dosing; details: dosed: Nitrite, 20 mg/kg, iv, Male, F344; remark: listed apart in the source
[16] = system: Rat; test: concentration in plasma after dosing; details: 10 min; dosed: Nitrite; 80 mg/kg; oral; Female; F344
[17] = system: Rat; test: concentration in plasma after dosing; details: 0.25 h; dosed: 678-39-7; 12 mg/kg; iv; Male; F344
[18] = system: Rat; test: concentration in liver after dosing; details: 3 h; dosed: Fluorotelomer alcohol 8+2; 80 mg/kg; oral; Female; Harlan Sprague Dawley
[19] = system: Rat; test: concentration in brain after dosing; details: 3 h; dosed: Perfluorooctanoic acid; 12 mg/kg; oral; Male; Harlan Sprague Dawley
[20] = system: Rat; test: concentration in plasma after dosing; details: dosed: 678-39-7, 40 mg/kg, iv, Male, F344
[21] = system: Rat; test: concentration in plasma after dosing; details: dosed: 678-39-7, 40 mg/kg, iv, Male, F344; remark: listed apart in the source
[22] = system: Rat; test: concentration in plasma after dosing; details: dosed: 678-39-7, 12 mg/kg, iv, Male, F344
[23] = system: Rat; test: concentration in liver after dosing; details: 3 h; dosed: Fluorotelomer alcohol 8+2; 24 mg/kg; oral; Male; Harlan Sprague Dawley
[24] = system: Rat; test: concentration in kidney after dosing; details: 0.5 h; dosed: Fluorotelomer alcohol 8+2; 80 mg/kg; oral; Female; Harlan Sprague Dawley
[25] = system: Rat; test: concentration in kidney after dosing; details: 3 h; dosed: Fluorotelomer alcohol 8+2; 24 mg/kg; oral; Male; Harlan Sprague Dawley
[26] = system: Rat; test: concentration in liver after dosing; details: 12 h; dosed: Perfluorooctanoic acid; 80 mg/kg; oral; Female; Harlan Sprague Dawley
[27] = system: Rat; test: concentration in kidney after dosing; details: 12 h; dosed: Fluorotelomer alcohol 8+2; 24 mg/kg; oral; Male; Harlan Sprague Dawley
[28] = system: Rat; test: concentration in brain after dosing; details: 6 h; dosed: Perfluorooctanoic acid; 12 mg/kg; oral; Male; Harlan Sprague Dawley
[29] = system: Rat; test: concentration in liver after dosing; details: 6 h; dosed: Fluorotelomer alcohol 8+2; 24 mg/kg; oral; Male; Harlan Sprague Dawley
[30] = system: Rat; test: concentration in kidney after dosing; details: 48 h; dosed: Perfluorooctanoic acid; 80 mg/kg; oral; Female; Harlan Sprague Dawley
[31] = system: Rat; test: concentration in brain after dosing; details: 0.5 h; dosed: Potassium Perfluorobutane Sulfonate; 20 mg/kg; oral; Female; Harlan Sprague Dawley
[32] = system: Rat; test: concentration in liver after dosing; details: 3 h; dosed: Potassium Perfluorobutane Sulfonate; 20 mg/kg; oral; Male; Harlan Sprague Dawley
[33] = system: Rat; test: concentration in liver after dosing; details: 1 h; dosed: Potassium Perfluorobutane Sulfonate; 20 mg/kg; oral; Male; Harlan Sprague Dawley
[34] = system: Rat; test: concentration in liver after dosing; details: 3 h; dosed: Potassium Perfluorobutane Sulfonate; 20 mg/kg; oral; Female; Harlan Sprague Dawley
[35] = system: Rat; test: concentration in plasma after dosing; details: dosed: Potassium Perfluorobutane Sulfonate, 20 mg/kg, oral, Male, Harlan Sprague Dawley
[36] = system: Rat; test: concentration in plasma after dosing; details: 1.5 h; dosed: Potassium Perfluorobutane Sulfonate; 4 mg/kg; iv; Male; F344

COc1ccc(C(=O)c2ccccc2)c(O)c1 [2-Hydroxy-4-methoxybenzophenone]
Details	concentration in plasma [ng/mL]
[1], 0.25 h	88.9
[1], 4 h	26.1
[2], 2 h	111
[2], 10 min	2560
[3], 2.5 min	47.3
[3], 4 h	240
[7], 10 h	27.5
[7], 10 min	52.4
[8], 0.25 h	1800
[8], 4 h	38.7
[12], 3 h	7.19
[12], 10 min	38.2

Details	concentration in plasma [ng/mL]
[4]	5560
[5]	81.6
[6]	625
[9]	102
[10]	403
[11]	411

O=N[O-] [Nitrite]
concentration in plasma [ng/mL]
Details	1 h	1.5 h	5 min	20 min
[13]	3100	–	12600	–
[15]	–	2000	–	2600

Details	concentration in plasma [ng/mL]
[14]	7600
[16]	22900

O=C(O)C(F)(F)C(F)(F)C(F)(F)C(F)(F)C(F)(F)C(F)(F)C(F)(F)F [Perfluorooctanoic acid]
Details	concentration in brain [ng/g]	concentration in kidney [ng/g]	concentration in liver [ng/g]	concentration in plasma [ng/mL]
[17]	–	–	–	176
[18]	–	–	2170	–
[19]	1330	–	–	–
[23]	–	–	1440	–
[24]	–	284	–	–
[25]	–	317	–	–
[26]	–	–	59900	–
[27]	–	581	–	–
[28]	1290	–	–	–
[29]	–	–	1350	–
[30]	–	703	–	–

Details	concentration in plasma [ng/mL]
[20], 0.25 h	465
[20], 0.5 h	220000
[20], 6 h	1540
[20], 24 h	1640
[21], 5 min	350000
[21], 6 h	66100
[22], 1 h	378
[22], 6 h	480

O=S(=O)([O-])C(F)(F)C(F)(F)C(F)(F)C(F)(F)F.[K+] [Potassium Perfluorobutane Sulfonate]
Details	concentration in brain [ng/g]	concentration in liver [ng/g]	concentration in plasma [ng/mL]
[31]	518	–	–
[32]	–	64100	–
[33]	–	100000	–
[34]	–	8410	–
[36]	–	–	1740

[35]
Details	concentration in plasma [ng/mL]
0.25 h	30200
24 h	1070
